Publication PMC7115536 (European Journal of Medicinal Chemistry, 2011)

How the values were obtained:
HEL cell cultures = conditions: human
[1] = Stability studies at 37 °C in complete culture medium and CEM-SS cell extracts; assay type: in vitro ADME; conditions: for t1/2 cell extracts (half-life of decomposition): CEM-SS cell extracts, 0.1 mM
WT HBV = assay type: cell-based
[2] = cited from earlier work

Row | SMILES | Minimum cytotoxic concentration (HEL cell cultures) [µM] | t1/2 cell extracts (half-life of decomposition) [1] | Potency relative to PMEA (more potent) (WT HBV) | Stability in all tested media [2] | Degradation in complete culture medium after 24 h ([1]; complete culture medium, 24 h) [%]
1 | Nc1ncnc2c1ncn2CCOCP(=O)([O-])[S-].[Na+].[Na+] (stereo not shown) [S-PMEA 3, {[2-(6-Amino-9H-purin-9-yl)ethoxy]methyl}phosphonothioic acid] | >200 | Stable ^c | 1.5–2.5 fold | – | –
2 | C[C@H](Cn1cnc2c(N)ncnc21)OCP(=O)(O)O [PMPA, (R)-9-(2-Phosphonomethoxypropyl)-adenine, reference compound] | >200 | – | – | stable | –
3 | C[C@H](Cn1cnc2c(N)ncnc21)OCP(=O)([O-])[S-].[Na+].[Na+] (stereo partly drawn) [S-PMPA 4, ({[(2R)-1-(6-Amino-9H-purin-9-yl)propan-2-yl]oxy}methyl)phosphonothioic acid] | >200 | Stable ^c | – | – | 20
4 | Nc1ncnc2c1ncn2CCOCP(=O)(O)O [PMEA, 9-(2-Phosphonomethoxyethyl)adenine, reference compound] | >200 | – | – | stable | –
